According to patent US9932300B2, “N,N′-diarylurea compounds and N,N′-diarylthiourea compounds as inhibitors of translation initiation” (President and Fellows of Harvard College, priority 2009, dated 2018):
Several values for one entry are separate records, joined by “and”; a condition that tells them apart may be missing. Identical values can stand only once.

Key:
[1] = system: eIF2-GTP-Met-tRNAi ternary complex; test: Ternary complex / ATF-4 dual luciferase assay in human cancer cell lines co-transfected with tTA and pBISA-DL(ATF-4) (CRL-2351, PC-3, CRL-2813); type: cell-based; details: CRL-2351 cell line
Description: FIGS. 8A-8D depict that N,N′-diarylureas reduce the availability of the eIF2-GTP-Met-tRNAi ternary complex in human cancer cells. A-C) PC-3, CR-L2351, and CRL-2813 human cancer cell lines were co-transfected with pBISA-DL^(ATF-4) and ptTA plasmids. One day post-transfection, the cells were treated with the indicated concentrations of N,N′-diarylureas. Firefly/renilla ratio was determined by DLR assay 8 hours after treatment. D) PC-3, CR-L2351, and CRL-2813 human cancer cell lines were treated with the indicated concentrations of N,N′-diarylureas four 8 hours, and expression of endogenous CHOP mRNA was determined by real-time PCR.
For example, reducing amount of the ternary complex increases translation of ATF-4, which results in elevated expression of CHOP mRNA and protein. Therefore, expression of endogenous CHOP mRNA and CHOP protein in KLN-tTA/pBISA-DL^(ATF-4) cells were utilized as secondary assays to validate N,N′-diarylurea compounds as modifiers of the eIF2⋅GTP⋅Met-tRNAi ternary complex. […] To rule out the possibility that the activity of N,N′-diarylurea compounds was confined to a single cell type, the effects of these compounds on the ternary complex assay and the expression of CHOP mRNA was assayed in CRL-2351, PC-3, CRL-2813 human breast, prostate, and melanoma cancer cell lines respectively. For the reporter gene assay, the three human cell lines were co-transfected with tTA expression vector and the pBISA-DL^(ATF-4) dual luciferase expression vector shown in FIG. 6. […] The expression of CHOP mRNA was assayed by real time PCR in the same cell lines treated with 5 or 20 μM of each compound. […]
Stable and transient transfection: Cells were seeded at the density of 10^5 in 60-mm (stable transfection) or 10^4 cells per well of 96-well plate (transient transfection) plates and transfected one day later using the Qiagen Transfectamine transfection kit. For selection of stable cell lines, transfected cells were transferred to 100-mm plates and selected with appropriate antibiotics.
Dual luciferase assay: Cells or minced tumors expressing firefly and renilla luciferases were lysed and the extracts assayed with a glow type dual luciferase assay kit, per manufacturer's instruction (Promega Inc., Madison, Wis.).

[2] = system: eIF2-GTP-Met-tRNAi ternary complex; test: Ternary complex assay (dual luciferase, firefly/renilla ratio) in stable KLN-tTA/pBISA-DL(ATF-4) cells; HTS and hit confirmation; type: cell-based, mouse; set-up: Activity 10 uM / Activity 2.5 uM / Activity 5 uM: unit not given here; details: for Activity 2.5 uM: compound at 2.5 uM; for Activity 2.5 uM / Activity 10 uM / Activity 5 uM: confirmed hits of the screen (Table 5); for Activity 10 uM: compound at 10 uM; for Activity 5 uM: compound at 5 uM; for Effect on firefly/renilla luciferase ratio: KLN-tTA/pBISA-DL(ATF-4) colonies, assay validation

| Compound | ATF-4 Cmax (concentration corresponding to the maximal activity) [1] | Activity 2.5 uM [2] | Activity 10 uM [2] | Activity 5 uM [2] | Effect on firefly/renilla luciferase ratio [2] |
| --- | --- | --- | --- | --- | --- |
| O=C(Nc1ccc(Cl)c(Cl)c1)Nc1ccc(Cl)c(Cl)c1 [Compound 1, 1,3-bis(3,4-dichlorophenyl)urea] | 5 µM |  |  |  |  |
| O=C(Nc1ccc(Cl)c(C(F)(F)F)c1)Nc1ccc(Cl)c(C(F)(F)F)c1 [Compound 2, 1,3-bis[4-chloro-3-(trifluoromethyl)phenyl]urea] | 2.4 µM |  |  |  |  |
| O=C(CC(=O)Nc1ccccc1Cl)NNC(c1cc(N=Nc2ccc(Br)cc2)ccc1O)P(O)O (stereo not drawn) [Compound 659608] |  | 1.34 | 3.07 |  |  |
| O=C1C=CC(=O)c2c1ccc1c3ccccc3n(-c3cccc([N+](=O)[O-])c3)c21 [Compound 661223] |  | 1.05 | 11.8 |  |  |
| Cn1c2ccccc2c2c(-c3ccccc3)cc3c(c21)C(=O)C=CC3=O [Compound 661225] |  | 1.76 | 25.16 |  |  |
| [Ru].[SH+]=C([SH2+])N1CCCCC1.[SH+]=C([SH2+])N1CCCCC1 [Compound 662875] |  | 10.55 | 40.72 |  |  |
| O=c1n(-c2ccc(Cl)c(Cl)c2)c(=O)n(-c2ccc(Cl)c(Cl)c2)c(=O)n1-c1ccc(Cl)c(Cl)c1 [Compound 664259] |  | 2.76 | 4.24 |  |  |
| Cc1nc2ccc(Br)cc2c(=O)n1-c1ccc(NC2OC(CO)C(O)C(O)C2O)cc1 (stereo not drawn) [Compound 665512] |  | 0.47 | 15.46 |  |  |
| c1cc(-c2ncc(-c3ccc4c(c3)CCCO4)o2)ccn1 [Compound 665702] |  | 1.79 | 3.38 |  |  |
| Cc1ccc(S(=O)(=O)n2c3c(c4ccccc42)CCN2C(=O)C(S(=O)(=O)c4ccccc4)=CCC32)cc1 (stereo not drawn) [Compound 665910] |  | 0.72 | 4.69 |  |  |
| N#Cc1c(N)nc([Se]CC(=O)c2ccc(Cl)cc2)c(C#N)c1-c1ccco1 [Compound 666131] |  | 4.12 | 8.72 |  |  |
| COc1ccc(/C=N/Nc2nc3ccccc3c(=O)n2-c2ccccc2)cc1 [Compound 666356] |  | 2.43 | 30.26 |  |  |
| COc1ccc(C2Oc3c(cccc3OC)C=C2[N+](=O)[O-])cc1 (stereo not drawn) [Compound 667223] |  |  | 6.01 and 8.726 |  |  |
| COc1cccc2c1OC(c1ccc(C#N)cc1)C([N+](=O)[O-])=C2 (stereo not drawn) [Compound 667226] |  | 0.34 | 4.79 |  |  |
| S=C1CC(c2ccccc2)Sc2ccccc2N1 (stereo not drawn) [Compound 667463] |  | 3.13 | 3.45 |  |  |
| O=[N+]([O-])C1=Cc2cc(Cl)ccc2OC1c1cccc2ccccc12 (stereo not drawn) [Compound 667472] |  | 0.35 | 9.48 |  |  |
| Cc1cccc(/C=N\NC(=S)N2CCCCC2)n1 [Compound 667875] |  | 4.59 | 7.27 |  |  |
| S=C(N/N=C/c1ccccn1)N1CC2CCC(CC2)C1 [Compound 667885] |  | 8.61 | 15.62 |  |  |
| C=C1CC(C)(COc2ccc3c(C)cc(=O)oc3c2)OC1=O (stereo not drawn) [Compound 668262] |  | 0.78 | 3.33 |  |  |
| COc1ccccc1NC(=S)N/N=C(/C)c1ccccn1 [Compound 668297] |  | 10.51 | 37.53 |  |  |
| COc1ccccc1NC(=S)N/N=C/c1ccccn1 [Compound 668298] |  | 11.99 | 30.06 |  |  |
| C/C(=N/NC(=S)Nc1ccccc1C)c1ccccn1 [Compound 668332] |  | 27.24 | 63.38 |  |  |
| C/C(=N/NC(=S)Nc1cccc(Cl)c1)c1cccc(/C(C)=N\NC(=S)Nc2cccc(Cl)c2)n1 [Compound 668484] |  | 1.59 | 3.57 |  |  |
| Oc1[nH]c2ccccc2c1N=NC(=S)N1CCCC1 [Compound 668494] |  | 3.76 | 13.68 |  |  |
| O=C1C=CC(=O)c2c1ccc1c3ccccc3n(CCCCCn3c4ccccc4c4ccc5c(c43)C(=O)C=CC5=O)c21 [Compound 668605] |  | 0.8 | 3.17 |  |  |

| Compound | ATF-4 Cmax (concentration corresponding to the maximal activity) [1] | Activity 2.5 uM [2] | Activity 10 uM [2] | Activity 5 uM [2] | Effect on firefly/renilla luciferase ratio [2] |
| --- | --- | --- | --- | --- | --- |
| S=C(NCCc1ccccn1)N/N=C/c1ccccn1 [Compound 670779] |  | 2.57 and 2.721 | 6.67 and 8.739 |  |  |
| C/C(=N/NC(=S)NC(C)(C)C)c1ccccn1 [Compound 670788] |  | 6.58 | 4.08 |  |  |
| S=C(N/N=C/c1ccccn1)Nc1ccc(Cl)cc1 [Compound 670965] |  | 50.7 and 44.32 | 23.32 and 25.3088 |  |  |
| S=C(NCc1ccccc1)N/N=C/c1ccccn1 [Compound 670969] |  | 1.55 | 3.644 |  |  |
| [CH+]=CC1([O][Sn-]([IH+])([c]2ccccc2)[c]2ccccc2)CCCCCC1 [Compound 671441] |  | 5.35 |  |  |  |
| Cc1cc[c]([Sn]([I])([O]C2(C=O)CCCCCC2)[c]2ccc(C)cc2)cc1 [Compound 671442] |  | 9.59 | 7.03 |  |  |
| CCCCCCCN1C(=O)C(O)(c2ccc(C3(O)C(=O)N(CCCCCCC)c4ccccc43)s2)c2ccccc21 (stereo not drawn) [Compound 671896] |  | 0.85 | 4.31 |  |  |
| COc1ccc2nc3cccc([N+](=O)[O-])c3c(NCCCO)c2c1 [Compound 673797] |  | 2.54 | 4.7 |  |  |
| Cc1cn(C2OC(CO[Si](C)(C)C(C)(C)C)C(N(C)O[Si](C)(C)C(C)(C)C)C2[Se]c2ccccc2)c(=O)[nH]c1=O (stereo not drawn) [Compound 674469] |  | 1.37 | 23.82 |  |  |
| Cc1cc(C)n(C(=C(C(Cl)=C(Cl)Cl)[N+](=O)[O-])n2nc(C)cc2C)n1 [Compound 678036] |  | 0.85 | 12.77 |  |  |
| CC(C)[Si]1(C(C)C)OCC2OC(N3C(=O)NC(=O)C[C@@H]3C(O)c3ccccc3)CC2O[Si](C(C)C)(C(C)C)O1 (stereo partly drawn) [Compound 680834] |  | 0.76 | 4.25 |  |  |
| CN1/C(=C/C=C/C=C/C=C2C(=O)c3ccccc3C2=O)C(C)(C)c2ccccc21 [Compound 682512] |  | 0.57 | 10.02 |  |  |
| c1ccc(-c2ccc(N=NN3CCCC3)cc2)cc1 [Compound 687753] |  |  | 6.931 | 4.922 |  |
| C=CC(=O)N1C/C(=C\c2ccc(Cl)cc2)C(=O)/C(=C/c2ccc(Cl)cc2)C1 [Compound 687849] |  | 0.88 | 12.02 |  |  |
| CN(C)c1ccc(/C=C2\CCCCCC2=O)cc1 [Compound 689962] |  |  | 7.987 | 4.784 |  |
| Cn1/c(=N\S(=O)(=O)c2ccccc2)n(S(=O)(=O)c2ccccc2)c2ccccc21 [Compound 690404] |  | 1.46 | 3.03 |  |  |
| COc1cc(/C=C2\CCC(C)/C(=C\c3cc(OC)c(OC)c(OC)c3)C2=O)cc(OC)c1OC (stereo not drawn) [Compound 690734] |  | 0.48 | 10.02 |  |  |
| FC(F)(Sc1ccccc1)c1nc2ccccc2o1 [Compound 691255] |  |  | 5.5705 | 3.963 |  |
| FC(F)(Sc1ccccn1)c1nc2ccccc2o1 [Compound 691256] |  |  | 5.7865 | 4.563 |  |
| Cn1ccnc1SC(F)(F)c1nc2ccccc2o1 [Compound 691258] |  |  | 3.904 | 3.891 |  |
| O=[N+]([O-])c1cccc(-c2cn3c(n2)Cc2ccccc2C3)c1 [Compound 693037] |  |  | 8.088 | 6.794 |  |
| COc1ccc(N=[N+]([O-])c2ccc(OC)cc2)cc1 [Compound 694092] |  |  | 5.898 | 4.958 |  |
| CO[C@@]12[C@H](COC(N)=O)C3=C(C(=O)C(C)=C(N)C3=O)N1C[C@@H]1N[C@@H]12 [mitomycin, reference compound] |  |  |  |  | no effect |
| C/C=C(/C)C(=O)O[C@H]1C(C)=C2[C@H]([C@@H]1OC(=O)CCCCCCC)[C@@](C)(OC(C)=O)C[C@H](OC(=O)CCC)[C@@]1(O)[C@H]2OC(=O)[C@@]1(C)O [thapsigargin, reference compound] |  |  |  |  | increase in the ratio of firefly activity relative to renilla activity |
| tunicamycin [reference compound] |  |  |  |  | increase in the ratio of firefly activity relative to renilla activity |
